From patent US10233180B2, “Substituted nitrogen-containing heterocyclic derivatives, pharmaceutical compositions comprising the same and applications of antitumor thereof” (ZHEJIANG UNIVERSITY, priority 2014, dated 2019)

Assays:
[1] = system: Human ovarian cancer cell strain OVCAR-8; assay: MTT assay, inhibition of tumor cell growth in vitro, 72 h; assay type: cell-based; settings: Homo sapiens, OVCAR-8, MTT, read-out: Antitumor proliferative activities of tumor cell (IC50, μM) OVCAR-8
Description: (§1) First, inhibitory activity on tumor proliferation in vitro is determined and the structure activity relationship is preliminarily studied, in which different solid tumor cell strains are selected for determining the antitumor activities in vitro of the synthesized compounds.
(§2) Cell strains: Human ovarian cancer cell strain (OVCAR8), colon adenocarcinoma cell strain (HCT-116)
Medium: OVCAR8: RPMI 1640+Fetal Bovine Serum
(§3) Preparing method of medicines: Dissolving the medicine in DMSO to make a 50 mM stock solution, and diluting it according to a certain ratio to obtain 5 different concentrations.
(§4) Two selected tumor cells OVCAR8 and HCT-116 are incubated at 37° C. in a 5% CO2 incubator, which are subcultured when cells grow up to a density of 70˜90% (adherent cells are subcultured after digesting by Duck's EDTA) for later experiments.
(§5) Compounds are dissolved and diluted by dimethyl sulfoxide (DMSO), and tumor cells OVCAR8 and HCT-116 are seeded in a 96-well plate at a density of 4000 cells/200 μl/well, 1 μl of the compounds are added to each well with the final concentration of 50 μM, 10 μM, 2 μM, 0.4 μM and 0.08 μM, which is incubated for 72 h at 37° C. in a 5% CO2 incubator with DMSO (1%) as blank control.
(§6) The calculating formula of cell inhibitory rate is: cell inhibitory rate %=(the OD value of the control group−the OD value of the medication group)/the OD value of the control group×100%, the half maximal inhibitory concentration (IC50) is obtained by Bliss method.

[2] = system: human colon cancer cell strain HCT-116; assay: as above; assay type: cell-based; settings: Homo sapiens, HCT-116, MTT, read-out: Antitumor proliferative activities of tumor cell (IC50, μM) HCT-116 (converted)
Description: as §1, §2
HCT-116: RPMI 1640+Fetal Bovine Serum
as §3, §4, §5, §6

[3] = biological target: T1, Akt1 (Homo sapiens, UniProt P31749); assay: AKT1/PKBα KinEASE FP Fluorescein Green Assay (fluorescence polarization kinase kit); assay type: biochemical; settings: 1 h reaction, read-out: Inhibitory activities against Akt1 (IC50)
T1 construct: purchased 32-021
T1 sequence (P31749 whole entry): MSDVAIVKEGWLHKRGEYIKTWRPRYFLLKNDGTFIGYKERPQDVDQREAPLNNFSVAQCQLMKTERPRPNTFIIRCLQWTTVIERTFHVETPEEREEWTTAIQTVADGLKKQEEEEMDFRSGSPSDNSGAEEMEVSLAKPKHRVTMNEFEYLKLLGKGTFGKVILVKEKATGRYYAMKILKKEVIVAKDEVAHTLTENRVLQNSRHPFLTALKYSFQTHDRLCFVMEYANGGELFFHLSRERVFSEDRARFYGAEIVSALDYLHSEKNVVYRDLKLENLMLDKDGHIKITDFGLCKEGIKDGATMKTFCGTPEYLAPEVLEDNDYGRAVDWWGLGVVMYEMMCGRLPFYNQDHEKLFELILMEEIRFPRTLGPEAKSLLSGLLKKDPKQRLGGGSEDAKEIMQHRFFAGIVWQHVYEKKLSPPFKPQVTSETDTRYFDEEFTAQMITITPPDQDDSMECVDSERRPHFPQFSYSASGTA
Description: Second, method for determining the inhibitory activities of substituted nitrogen-containing heterocyclic derivatives in the present invention against Akt1 enzyme:
The inhibitory activities of compounds against AKT1/PKBα are determined by using AKT1/PKBα KinEASE™ FP Fluorescein Green Assay (Green fluorescence detection system of Kinase).
Principle adopted by the fluorescence polarization detection of protein kinase B is a competitive reaction: the phosphorylated tracers labeled with fluorescence will compete with unlabeled phosphorylated products produced by reacting with protein kinase B to combine anti-serine antibodies. […] However, in the reaction mixture containing phosphorylated products, fewer tracers will combine with antibodies (fluorescent tracers are replaced from the antibodies), and signals sent our occur depolarizing. Therefore, the change of polarization is directly related to the activity of protein kinase B in the reaction.
Each of 0.25 μl of compounds with a concentration of 50 μM and the positive control are added to a 384-well plate at room temperature, and each sample is provided with three parallel wells, and then 10 μl of STK Substrate 3 Working Solution, 5 μl of AKT1/PKBα Working Solution, 10 μl of ATP Working Solution are added to each sample respectively, the mixtures are slightly vibrated and shaked for a few minutes. Reaction is carried out just after the adding 10 μl of ATP Working Solution, from this time, reacting for 1 h. After 1 h, 5 μl of STK Stop Mix and 5 μl of STK Antibody Mix are added to each sample respectively to stop the reaction. The samples are maintained for 4 h at room temperature after adding is completed, the polarization values of samples are determined by fluorescence polarization of Microplate Reader (Detection of the signals is valid within 24 h), the inhibitory rate of compounds against the enzyme is calculated by polarization value, and thereby IC50 is calculated.
Experiment is set up four control groups at the same time, which are Buffer Control Wells, Tracer Control Wells, No Enzyme Wells and blank control of dimethyl sulfoxide, respectively. Thus obtained data are used to calculate the inhibitory rate (the preparation methods of above various solution required for determining the activities of compounds against enzyme refer to the specification of the kit of AKT1/PKBα KinEASE™ FP Fluorescein Green Assay Catalog #32-021).

SMILES	IC50 [1] [µM]	IC50 [2] [µM]	IC50 [3] [nM]
Cn1ncc(Br)c1-c1csc(C(=O)N[C@H]2CNCC[C@@H]2c2ccc(F)c(F)c2)c1 (racemic) [Compound 38, 4-(4-bromo-1-methyl-1H-pyrazol-5-yl)-N-(3,4-trans-4-(3,4-difluorophenyl)piperidin-3-yl)thiophene-2-formamide]	4.69	1.94	409
Cn1ncc(Br)c1-c1ccc(C(=O)N[C@@H]2CNCC[C@H]2c2cccc(F)c2)s1 [Compound 147, 5-(4-bromo-1-methyl-1H-pyrazol-5-yl)-N-((3S,4S)-4-(3-fluorophenyl)piperidin-3-yl)thiophene-2-formamide]	2.43	0.36	9
Cn1nccc1-c1coc(C(=O)N[C@H]2CNCC[C@@H]2c2ccccc2)n1 (racemic) [Compound 19, 4-(1-methyl-1H-pyrazol-5-yl)-N-(3,4-trans-4-phenylpiperidin-3-yl)oxazole-2-formamide]	9.83	4.56	82
Cc1sc(C(=O)N[C@H]2CNCC[C@@H]2c2ccc(F)c(F)c2)nc1-c1c(Cl)cnn1C (racemic) [Compound 20, 4-(4-chloro-1-methyl-1H-pyrazol-5-yl)-N-(3,4-trans-4-(3,4-difluorophenyl)piperidin-3-yl)-5-methylthiazole-2-formamide]	9.91	2.11	12
Cn1ncc(Cl)c1-c1ccc(C(=O)N[C@@H]2CNCC[C@H]2c2cccc3[nH]ccc23)cc1Cl [Compound 91, N-((3S,4S)-4-(1H-indol-4-yl)piperidin-3-yl)-3-chloro-4-(4-chloro-1-methyl-1H-pyrazol-5-yl)benzamide]	2.91	0.34	5
C=Cc1cnn(C)c1-c1ccc(C(=O)N[C@@H]2CNCC[C@H]2c2cccc(F)c2)s1 [Compound 144, N-((3S, 4S)-4-(3-fluorophenyl)piperidin-3-yl)-5-(1-methyl-4-vinyl-1H-pyrazol-5-yl)thiophene-2-formamide]	3.48	3.68	2
Cn1ncc(Cl)c1-c1ccc(C(=O)N[C@@H]2CNCC[C@H]2c2cccc(F)c2)cc1OC(F)(F)F [Compound 85, 4-(4-chloro-1-methyl-1H-pyrazol-5-yl)-N-((3S,4S)-4-(3-fluorophenyl)piperidin-3-yl)-3-(trifluoromethoxy)benzamide]	3.07	5.56	21
CNC(=O)CC1C[C@@H](c2ccc(F)c(F)c2)[C@H](NC(=O)c2ccc(-c3c(Cl)cnn3C)c(Cl)c2)CN1 (stereo partly drawn) [Compound 99, 3-chloro-4-(4-chloro-1-methyl-1H-pyrazol-5-yl)-N-((3S,4S)-4-(3,4-difluorophenyl)-6-(2-(methylamido)-2-oxoethyl)piperidin-3-yl)benzamide]	3.38	1.21	7
Cn1ncc(Br)c1-c1csc(C(=O)N[C@@H]2CNCC[C@H]2c2ccc(F)c(F)c2)c1 [Compound 42, 4-(4-bromo-1-methyl-1H-pyrazol-5-yl)-N-((3S,4S)-4-(3,4-difluorophenyl)piperidin-3-yl)thiophene-2-formamide]	9.71	8.11	92

Now those with a lower IC50 [1], led by results:

IC50 [1] [µM]	IC50 [2] [µM]	IC50 [3] [nM]	SMILES
0.65	1.47	4	Cn1ncc(Cl)c1-c1cc(C(=O)N[C@@H]2CNC(CC(=O)NC3CC3)C[C@H]2c2ccc(Cl)c(Cl)c2)oc1Cl (stereo partly drawn) [Compound 119, 5-chloro-4-(4-chloro-1-methyl-1H-pyrazol-5-yl)-N-((3S,4S)-6-(2-(cyclopropylamido)-2-oxoethyl)-4-(3,4-dichlorophenyl)piperidin-3-yl)furan-2-formamide]
1.32	4.09	10	COc1cc(C(=O)N[C@@H]2CNCC[C@H]2c2cccc(F)c2)ccc1-c1c(Cl)cnn1C [Compound 83, 4-(4-chloro-1-methyl-1H-pyrazol-5-yl)-N-((3S,4S)-4-(3-fluorophenyl)piperidin-3-yl)-3-methoxybenzamide]
1.19	4.43	3	C[C@H]1CNC[C@@H](NC(=O)c2ccc(-c3c(Cl)cnn3C)s2)[C@@H]1c1cccc(F)c1 [Compound 150, 5-(4-chloro-1-methyl-1H-pyrazol-5-yl)-N-((3S, 4S, 5R)-4-(3-fluorophenyl)-5-methylpiperidin-3-yl)thiophene-2-formamide]
1.56	1.1	14	Cn1ncc(Cl)c1-c1cc(C(=O)N[C@@H]2CNC(CCN3CCC(O)CC3)C[C@H]2c2ccc(Cl)c(Cl)c2)oc1Cl (stereo partly drawn) [Compound 114, 5-chloro-4-(4-chloro-1-methyl-1H-pyrazol-5-yl)-N-((3S,4S)-4-(3,4-dichlorophenyl)-6-(2-(4-hydroxylpiperidin-1-yl)ethyl)piperidin-3-yl)furan-2-formamide]
1.44	2.51	0.7	Cn1ncc(Cl)c1-c1sc(C(=O)N[C@@H]2CNCC[C@H]2c2cccc(F)c2)cc1Cl [Compound 139, 4-chloro-5-(4-chloro-1-methyl-1H-pyrazol-5-yl)-N-((3S, 4S)-4-(3-fluorophenyl)piperidin-3-yl)thiophene-2-formamide]
0.07	0.49	4	Cn1ncc(Cl)c1-c1cc(C(=O)N[C@@H]2CNC(CCCO)C[C@H]2c2ccc(Cl)c(Cl)c2)oc1Cl (stereo partly drawn) [Compound 111, 5-chloro-4-(4-chloro-1-methyl-1H-pyrazol-5-yl)-N-((3S,4S)-4-(3,4-dichlorophenyl)-6-(3-hydroxypropyl)piperidin-3-yl)furan-2-formamide]
1.62	22.6	256	CCc1cc(C(=O)N[C@@H]2CNCC[C@H]2c2ccc(C(F)(F)F)cc2)cnc1-c1c(Br)cnn1C [Compound 64, 5-ethyl-6-(4-bromo-1-methyl-1H-pyrazol-5-yl)-N-((3S,4S)-4-(4-trifluoromethylphenyl)piperidin-3-yl)pyridinyl-3-formamide]
0.67	1.23	5	Cn1ncc(-c2ccccc2)c1-c1ccc(C(=O)N[C@@H]2CNCC[C@H]2c2ccc(F)c(F)c2)s1 [Compound 148, N-((3S, 4S)-4-(3,4-difluorophenyl)piperidin-3-yl)-5-(1-methyl-4-phenyl-1H-pyrazol-5-yl)thiophene-2-formamide]
1.62	3.09	2	Cn1ncc(C(=O)O)c1-c1ccc(C(=O)N[C@@H]2CNCC[C@H]2c2cccc(F)c2)s1 [Compound 142]
0.68	3.11	85	CC(C)c1cnn(C)c1-c1nc(C(=O)N[C@H]2CNCC[C@@H]2C2CCC(F)C2)ncc1Cl (stereo partly drawn) [Compound 51, 5-chloro-4-(4-isopropyl-1-methyl-1H-pyrazol-5-yl)-N-(3,4-trans-4-(3-fluorocyclopentane)piperidin-3-yl)pyrimidine-2-formamide]
1.06	2.05	72	Cc1nc(C(=O)N[C@H]2CNCC[C@@H]2c2ccc(F)c(F)c2)ncc1-c1c(Cl)cnn1C (racemic) [Compound 52, 4-methyl-5-(4-chloro-1-methyl-1H-pyrazol-5-yl)-N-(3,4-trans-4-(3,4-difluorophenyl)piperidin-3-yl)pyrimidine-2-formamide]
